# Measurements reported in PubChem BioAssay (NCI).
#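 All cell lines were grown in 96-well plates and treated with compound for 48 hours. The concentration for full growth arrest is given as TGI.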
# Experiments:
# Assay in all cases: NCI anticancer screen, dose series, 48 h
# [1] = test system: OVCAR-8 ovarian
# [2] = test system: RPMI-8226 leukemia
# [3] = test system: MALME-3M melanoma
# [4] = test system: ACHN renal
# [5] = test system: IGROV1 ovarian
# [6] = test system: K-562 leukemia
# [7] = test system: CCRF-CEM leukemia
# [8] = test system: HOP-62 NSCLC
# [9] = test system: MCF7 breast
# [10] = test system: BT-549 breast
# [11] = test system: OVCAR-5 ovarian
# [12] = test system: RXF 393 renal
# [13] = test system: UACC-257 melanoma
# [14] = test system: UO-31 renal
# [15] = test system: SR leukemia
# [16] = test system: SK-MEL-2 melanoma
# [17] = test system: A549 NSCLC
# [18] = test system: OVCAR-4 ovarian
# [19] = test system: HL-60(TB) leukemia
# [20] = test system: KM12 colon
smiles,measurement,setting,value
NCCCc1ccc2oc3ccccc3c2c1,TGI,[1],57 µM
same,TGI,[2],70.7 µM
same,TGI,[3],34.3 µM
same,TGI,[4],32.1 µM
same,TGI,[5],43.7 µM
same,TGI,[6],69.4 µM
same,TGI,[7],32.6 µM
same,TGI,[8],32 µM
same,TGI,[9],34.2 µM
same,TGI,[10],37.2 µM
same,TGI,[11],26.2 µM
same,TGI,[12],32.4 µM
same,TGI,[13],32.1 µM
same,TGI,[14],29.6 µM
same,TGI,[15],52.2 µM
same,TGI,[16],38.2 µM
same,TGI,[17],32.9 µM
same,TGI,[18],38.3 µM
same,TGI,[19],31.2 µM
O=C(O)c1cc2c(s1)C(=O)c1sccc1C2=O,TGI,[20],21.1 µM
same,TGI,[1],14.6 µM
same,TGI,[2],41.7 µM
same,TGI,[3],0.806 µM
same,TGI,[4],25.1 µM
same,TGI,[5],30.9 µM
same,TGI,[6],15.2 µM
same,TGI,[7],33.1 µM
same,TGI,[8],11.6 µM
same,TGI,[9],7.91 µM
same,TGI,[10],3.78 µM
same,TGI,[11],23.4 µM
same,TGI,[12],16.9 µM
same,TGI,[13],6.27 µM
same,TGI,[14],16 µM
same,TGI,[15],8.38 µM
same,TGI,[16],6.03 µM
same,TGI,[17],8.39 µM
same,TGI,[18],16.1 µM
same,TGI,[19],19 µM
CCOC(=O)C1(Cc2c[nH]c3ccccc23)C(O)CCCN1C(C)=O (stereo unspecified),TGI,[20],> 100 µM
same,TGI,[1],> 100 µM
same,TGI,[2],> 100 µM
same,TGI,[3],> 100 µM
same,TGI,[4],> 100 µM
same,TGI,[5],> 100 µM
same,TGI,[6],> 100 µM
same,TGI,[7],> 100 µM
same,TGI,[8],> 100 µM
same,TGI,[9],> 100 µM
same,TGI,[10],> 100 µM
same,TGI,[11],> 100 µM
same,TGI,[12],> 100 µM
same,TGI,[13],> 100 µM
same,TGI,[14],> 100 µM
same,TGI,[15],> 100 µM
same,TGI,[16],> 100 µM
same,TGI,[17],> 100 µM
same,TGI,[18],> 100 µM
same,TGI,[19],> 100 µM
O=Cc1cc2c(o1)C(=O)c1ccccc1C2=O,TGI,[20],4.54 µM
same,TGI,[1],2.72 µM
same,TGI,[2],> 100 µM
same,TGI,[3],0.37 µM
same,TGI,[4],7.96 µM
same,TGI,[5],4.46 µM
same,TGI,[7],6.4 µM
same,TGI,[8],2.6 µM
same,TGI,[9],0.581 µM
same,TGI,[10],2.12 µM
same,TGI,[11],3.25 µM
same,TGI,[12],2.99 µM
same,TGI,[13],1.5 µM
same,TGI,[14],4.6 µM
same,TGI,[15],3.68 µM
same,TGI,[16],4.2 µM
same,TGI,[17],3.02 µM
same,TGI,[18],2.26 µM
same,TGI,[19],1.15 µM
N=c1oc2ccc(Cl)cc2cc1C(=O)Nc1ccccc1,TGI,[20],> 100 µM
same,TGI,[1],> 100 µM
same,TGI,[2],> 100 µM
same,TGI,[3],> 100 µM
same,TGI,[4],> 100 µM
same,TGI,[5],> 100 µM
same,TGI,[6],> 100 µM
same,TGI,[7],> 100 µM
same,TGI,[8],> 94.8 µM
same,TGI,[9],> 100 µM
same,TGI,[10],> 100 µM
same,TGI,[11],> 100 µM
same,TGI,[12],> 100 µM
same,TGI,[13],> 100 µM
same,TGI,[14],> 100 µM
same,TGI,[15],> 100 µM
same,TGI,[16],> 100 µM
same,TGI,[17],> 100 µM
same,TGI,[18],> 100 µM
same,TGI,[19],> 100 µM
CN1C(=O)C(O)CC1c1cccc(F)c1 (stereo unspecified),TGI,[20],> 100 µM
same,TGI,[1],> 100 µM
same,TGI,[2],> 100 µM
same,TGI,[3],> 100 µM
same,TGI,[4],> 100 µM
same,TGI,[5],> 100 µM
same,TGI,[6],> 100 µM
same,TGI,[7],> 100 µM
same,TGI,[8],> 100 µM
same,TGI,[9],> 100 µM
same,TGI,[10],> 100 µM
same,TGI,[11],> 100 µM
same,TGI,[12],> 100 µM
same,TGI,[13],> 100 µM
same,TGI,[14],> 100 µM
same,TGI,[15],> 100 µM
same,TGI,[16],> 100 µM
same,TGI,[17],> 100 µM
same,TGI,[18],> 100 µM
same,TGI,[19],> 100 µM
Cc1cc(NS(=O)(=O)c2ccc(Nc3c4ccccc4nc4ccc(C(=O)Nc5ccc(S(=O)(=O)N=C(N)N)cc5)cc34)cc2)no1,TGI,[20],> 100 µM
same,TGI,[1],> 100 µM
same,TGI,[2],> 100 µM
same,TGI,[3],> 100 µM
same,TGI,[4],> 100 µM
same,TGI,[5],> 100 µM
same,TGI,[6],> 100 µM
same,TGI,[7],> 100 µM
same,TGI,[8],> 100 µM
same,TGI,[9],> 100 µM
same,TGI,[10],> 100 µM
same,TGI,[11],> 100 µM
same,TGI,[12],> 100 µM
same,TGI,[13],> 100 µM
same,TGI,[14],> 100 µM
same,TGI,[15],> 100 µM
same,TGI,[16],> 100 µM
same,TGI,[17],> 100 µM
same,TGI,[18],> 100 µM
same,TGI,[19],> 100 µM
CCCCCCCC(=O)N/N=C/c1ccc(Sc2nccn2C)c([N+](=O)[O-])c1,TGI,[20],32.1 µM
same,TGI,[1],37.4 µM
same,TGI,[2],46.7 µM
same,TGI,[3],29 µM
same,TGI,[4],75.2 µM
same,TGI,[5],24.7 µM
same,TGI,[6],82.6 µM
same,TGI,[7],17.2 µM
same,TGI,[8],36.4 µM
same,TGI,[9],38.2 µM
same,TGI,[10],34.2 µM
same,TGI,[11],39.2 µM
same,TGI,[12],30.4 µM
same,TGI,[13],26.9 µM
same,TGI,[14],22.7 µM
same,TGI,[15],55.6 µM
same,TGI,[16],31 µM
same,TGI,[17],> 100 µM
same,TGI,[18],58.3 µM
same,TGI,[19],0.772 µM
COC1OC(COC(=O)NCCCCC(=O)C(F)(F)F)C(O)C(O)C1O (stereo unspecified),TGI,[20],> 100 µM
same,TGI,[2],> 100 µM
same,TGI,[3],> 100 µM
same,TGI,[4],> 100 µM
same,TGI,[5],> 100 µM
same,TGI,[6],> 100 µM
same,TGI,[7],> 100 µM
same,TGI,[8],> 100 µM
same,TGI,[9],> 100 µM
same,TGI,[10],> 100 µM
same,TGI,[11],> 100 µM
same,TGI,[12],> 100 µM
same,TGI,[13],> 100 µM
same,TGI,[14],> 100 µM
same,TGI,[15],> 100 µM
same,TGI,[16],> 100 µM
same,TGI,[17],> 100 µM
same,TGI,[18],> 100 µM
same,TGI,[19],> 100 µM
CC(=O)Nc1ccc(N2C(=O)/C(=C\c3cccc(Oc4ccccc4)c3)SC2c2ccccc2)cc1 (stereo unspecified),TGI,[20],90.5 µM
same,TGI,[1],34.8 µM
same,TGI,[2],58.3 µM
same,TGI,[3],62.4 µM
same,TGI,[4],> 100 µM
same,TGI,[6],> 100 µM
same,TGI,[7],41.1 µM
same,TGI,[8],56.6 µM
same,TGI,[9],65.8 µM
same,TGI,[10],> 100 µM
same,TGI,[11],> 100 µM
same,TGI,[12],> 100 µM
same,TGI,[13],> 100 µM
same,TGI,[14],> 100 µM
same,TGI,[15],56.4 µM
same,TGI,[16],> 100 µM
same,TGI,[17],> 100 µM
same,TGI,[18],> 100 µM
same,TGI,[19],> 100 µM
